Data as given in US11524950B2, “Treatment of immune-related and inflammatory diseases” (Celgene Corporation, priority 2012, dated 2022).
Like-named read-outs stand apart in the source and are kept apart here.

Key:
BCL-6, IRF-4 and BLIMP-1 = assay: Transcription factor protein expression by laser scanning cytometry, SLE patient PBMC; assay type: cell-based, human; settings: CD38+ plasmablast/plasma cells, Day 4 and Day 7 SLE patient PBMC
Protocol: Preparation Of Cytospin From Single Cell Suspension And Immunofluorescence Staining for iCyte: A cell suspension of not more than 0.5×10^6 cells/ml of 2% FBS-containing PBS was prepared. Up to 200 μl of this suspension was loaded in each cuvette and spinned at 800 rpm for 3 min. The cuvette and the paper were carefully detached without damaging the fresh cytospin and proceeded with either immediate fixation or drying. Unfixed cytospins were stored for max 2 days at room temperature. Cells on slides were fixed with increasing concentrations of EtOH and allowed to dry prior to staining. After blocking non-specific binding with normal serum (species same as secondary antibody), sections were incubated with the mixture of following monoclonal antibodies in a humidified chamber at cool room for overnight: (i) anti-human CD38 as plasmablast cell marker, and (ii) anti-BCL-6, IRF-4, BLIMP-1, PAX5 and XBP-1 for transcription factor proteins. After washings, slides were incubated for 1 hr at room temperature in dark with the mixture of secondary antibodies which were raised in different species (with two different fluorochromes, i.e., Alexa Fluor-488 and Alexa Fluor-633). The slides were then rinsed in PBS, counterstained with DAPI for 20 minutes at room temperature, coverslipped with anti-fade fluorescent mounting medium, and sealed with nail polish. The slides were stored in dark at 4° C. To exclude false positives produced by nonspecific binding of the secondary antibody, all of the tissues were treated in the same manner with buffer substituting for the primary antibody. The color of the antibody staining was observed and quantity was analyzed in the tissue sections using iCyte.

SSc fibroblasts = assay: Fibrotic gene expression in SSc skin fibroblasts (real time PCR); assay type: cell-based, human; settings: 24 hours
Protocol: Cell cultures: Human normal and scleroderma skin fibroblasts were cultured in DMEM containing 10% fetal bovine serum (FBS). The cells were maintained in a humidified 5% CO2, 95% air incubator at 37° C. After confluence was reached, the cells were harvested with 0.05% trypsin and subcultured. Cells were used in the 3rd-5th passage.
Experimental design: Cells were grown to 70-80% confluence and placed into quiescent state by a reduction in serum concentration to 0.4% for overnight. The effects of the compound on TGFβ fibrotic effects and on NL and SSc fibrotic gene expression were tested.
Effects of the compound on SSc-FB: SSc fibrobasts were treated with the compound at different concentration and gene expression levels of Collagen 1A1 (COL1), α-smooth muscle actin (α-SMA), fibronectin (FN), matrix metallopeptidase 1 (MMP1), plasminogen activator inhibitor (PAI), and DNA (cytosine-5-)-methyltransferase 1 (Dnmt1) were determined 24 hours later by real time PCR.
Quantitative Real-Time PCR: Total RNA was extracted from cells using RNeasy kit. RNA concentration was measured and 1 ug of RNA was reverse transcribed to cDNA using RT-First strand kit. The cDNA was then amplified using respective primers and Power SYBR Green PCR Master Mix. The amplicon (150-200 bp) was detected by ABI 7500 Real Time PCR System. All the target genes were normalized to GAPDH and relative fold changes were calculated. Each sample was assessed in triplicate.

H929 MM cell lines = assay: Cell proliferation in lenalidomide-sensitive and resistant H929 MM cells (7-AAD); assay type: cell-based; settings: Homo sapiens, NCI-H929, 120 h, 5 days, read-out: IC50 for inhibition of proliferation
Protocol: CRBN ubiquitination was measured in HEK293T cells, which were transfected with an amino-terminal His-biotin-tagged CRBN construct, then preincubated with compounds for one hour followed by treatment with the MG132 proteasome inhibitor (to arrest degradation of ubiquitinated proteins). Cells were lysed and processed to measure CRBN ubiquitination by SDS-PAGE and immunoblot analysis using an anti-ubiquitin antibody. Cell proliferation studies were conducted in enalidomide-sensitive and refractory multiple myeloma cells. Lenalidomide-resistant or sensitive H929 MM cell lines were treated with Compound IA for 5 days, and then cell proliferation and viability were assessed by 7-aminoactinomycin D (“7-ADD”) staining. T-cell costimulation was measured in purified primary human T cells stimulated using immobilized anti-CD3 antibody in cell culture for 2 days, and cytokine secretion was measured by ELISA.

CD83 = CD83 expression in B cell differentiation culture (flow cytometry); assay type: cell-based, human
Protocol: Immunophenotyping For Flow Cytometric Analysis: Cells were stained using multicolor direct immunofluorescence stain for flow cytometric analysis. Surface staining was performed before cell fixation and permeabilization. Cells (50 μl; 1×10^6 cells/ml in washing buffer, 2% FBS with 0.1% NaN3 in PBS) were used for each staining. The cells were stained with isotype control mAb ([…]) and multicolor FITC-conjugated anti-CD20 mAb and PE-conjugated anti-CD38 mAb, or PerCP-Cy5.5 conjugated anti-CD44 mAb, PE-conjugated anti-CD83 mAb were used for day 4 activated B cells (CD20+CD38-cells), and day 4 PBs and day 7 PBs (CD20-CD38+), and other staining, analyzed by flow cytometry as per manufacturer's instructions. The intracellular staining of transcription factor proteins (BCL-6, IRF-4, BLIMP-1, PAX-5 and XBP-1) and IgJ was performed according to the manufacturer's recommendations. Flow cytometric analysis was performed with a FACSCanto using FACSDiva 6 (BD Biosciences). For data analysis, Flowjo (Tree Star) software was used.
Using the same B cells in vitro differentiation system, the activity of the test compound on CD44 and CD83 expression in B cell differentiation was further investigated. Multicolor FITC-conjugated anti-CD20 mAb, PerCP Cy5.5-conjugated anti-CD44 mAb and PE-conjugated anti-CD83 mAb are used for day 4 and day 7 cells. The effect of the test compound was evaluated from 3 separate experiments representative of 3 donors.

CD19+ B cells = assay: Cell viability during plasmablast differentiation (live cell count); assay type: cell-based, human; settings: for percentage of total viable cells: after 4 days
Excerpt: To determine live cell count, B cells (see section 8.2.3) were stained with 0.4% trypan blue and live cells counted using the Countess automated cell counter (Invitrogen) in duplicate samples.

Question: Which results are given for O=C1CC[C@H](N2Cc3c(OCc4ccc(CN5CCOCC5)cc4)cccc3C2=O)C(=O)N1 [Test compound, (S)-3-[4-(4-morphlin-4-ylmethylbenzyloxy)-1-oxo-1,3-dihydro-isoindo-2-yl]piperidine-2,6-dione]?
Answer: BCL-6 expression (BCL-6, IRF-4 and BLIMP-1): significantly increased; BLIMP-1 expression (BCL-6, IRF-4 and BLIMP-1): inhibited; RF-4 expression (BCL-6, IRF-4 and BLIMP-1): inhibited; BCL-6 expression (BCL-6, IRF-4 and BLIMP-1; listed as Compound I-S): increased; BLIMP-1 expression (BCL-6, IRF-4 and BLIMP-1; listed as Compound I-S): significantly reduced; RF-4 expression (BCL-6, IRF-4 and BLIMP-1; listed as Compound I-S): significantly reduced; expression of COL1 mRNA (SSc fibroblasts): dose dependently reduced; expression of Dnmt1 (SSc fibroblasts): dose dependently reduced; expression of FN mRNA (SSc fibroblasts): dose dependently reduced; expression of MMP-1 (SSc fibroblasts): dose dependently increased; expression of PAI (SSc fibroblasts): dose dependently reduced; expression of aSMA mRNA (SSc fibroblasts): dose dependently reduced; IC50 (H929 MM cell lines; DMSO-treated subclone): 40 nM; IC50 (H929 MM cell lines; lenalidomide resistant subclones): 510 to 1580 nM; IC50 (H929 MM cell lines; parental H929 cell line): 10 nM; total CD83+ cell population (CD83): significantly increased; percentage of CD83+ cells (CD83; Day 4, 2 nM, DMSO 13.4%±2.4%): 24.1%; percentage of CD83+ cells (CD83; Day 4, 20 nM, DMSO 13.4%±2.4%): 40.2%; percentage of CD83+ cells (CD83; Day 4, 200 nM, DMSO 13.4%±2.4%): 49.5%; percentage of CD83+ cells (CD83; Day 7, 2 nM, DMSO […]±3.3): 16.3%; percentage of CD83+ cells (CD83; Day 7, 20 nM, DMSO […]±3.3): 36.1%; percentage of CD83+ cells (CD83; Day 7, 200 nM, DMSO […]±3.3): 51.9%; percentage of total viable cells (CD19+ B cells; 20 nM): 69.6 % of control; percentage of total viable cells (CD19+ B cells; 200 nM): 35.8 % of control; B cell viability (CD19+ B cells; first 4 days of culture): reduced
